Assay results reported in US9938273B2 (Plexxikon Inc., priority 2015, dated 2018).

Assays:
[1] = molecular target: T1, FLT3-ITD (Homo sapiens, UniProt P36888); test: AlphaScreen kinase assay with recombinant enzyme, FLT3-ITD; format: biochemical; conditions: 8pt; read-out: FLT3_ITD 8pt: IC50
T1 sequence (P36888 1-993): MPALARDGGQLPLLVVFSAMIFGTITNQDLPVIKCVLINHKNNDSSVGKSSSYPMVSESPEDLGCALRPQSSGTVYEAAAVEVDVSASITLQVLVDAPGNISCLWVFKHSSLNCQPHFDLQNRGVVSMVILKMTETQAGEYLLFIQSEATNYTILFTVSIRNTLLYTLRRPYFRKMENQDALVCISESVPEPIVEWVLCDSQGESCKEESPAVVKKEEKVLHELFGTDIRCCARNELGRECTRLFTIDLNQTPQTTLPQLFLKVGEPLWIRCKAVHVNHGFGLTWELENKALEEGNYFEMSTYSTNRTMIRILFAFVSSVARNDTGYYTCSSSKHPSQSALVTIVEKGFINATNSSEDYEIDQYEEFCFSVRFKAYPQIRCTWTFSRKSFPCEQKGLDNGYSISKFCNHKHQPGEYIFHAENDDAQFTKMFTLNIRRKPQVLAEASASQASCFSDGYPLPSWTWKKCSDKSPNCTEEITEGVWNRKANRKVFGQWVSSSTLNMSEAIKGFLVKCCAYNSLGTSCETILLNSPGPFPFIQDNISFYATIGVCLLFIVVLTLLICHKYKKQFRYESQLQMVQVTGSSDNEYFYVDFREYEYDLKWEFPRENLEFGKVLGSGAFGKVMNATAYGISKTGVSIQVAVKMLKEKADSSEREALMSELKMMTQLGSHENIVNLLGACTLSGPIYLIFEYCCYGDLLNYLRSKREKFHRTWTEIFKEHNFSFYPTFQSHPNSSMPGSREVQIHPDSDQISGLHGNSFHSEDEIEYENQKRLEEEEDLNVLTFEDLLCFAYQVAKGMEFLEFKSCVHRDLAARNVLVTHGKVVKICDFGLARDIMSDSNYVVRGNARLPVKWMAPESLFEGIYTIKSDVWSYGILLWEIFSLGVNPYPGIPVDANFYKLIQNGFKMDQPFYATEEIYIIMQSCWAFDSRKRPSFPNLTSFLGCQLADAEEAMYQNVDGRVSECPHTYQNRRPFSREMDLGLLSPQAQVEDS
Description: (§1) In order to determine the effect of compounds on FLT3 catalytic activity, kinase assays using recombinant enzymes and AlphaScreen® technology have been established. The catalytic activity of c-kit activity was also measured to determine selectivity of the compounds. When the kinases are catalytically active, they phosphorylate a biotinylated peptide substrate on tyrosine residues. Using AlphaScreen® technology, the ability of the compounds to affect the catalytic activity of the kinases can be measured quantitatively. The peptide substrate is immobilized by the AlphaScreen® Streptavidin Donor beads and, upon phosphorylation by a tyrosine kinase, can bind to AlphaScreen® Anti-Phosphotyrosine (PY20) Acceptor beads. Upon excitation of these beads with laser light at 680 nm, singlet oxygen is produced. This singlet oxygen is rapidly quenched, unless the AlphaScreen® Anti-Phosphotyrosine (PY20) Acceptor beads are in close proximity, in which case a proximity signal can be measured at 580 nm. In the presence of catalytic activity, there is a very strong proximity signal. Selective kinase inhibitors affect a decrease in this proximity signal through a decrease in tyrosine phosphorylation of the peptide substrate.
(§2) The assay was performed as summarized below.
(§3) Poly (Glu4-Tyr) Peptide, biotin conjugate [Biotin-GG(EEEEY)10EE] (SEQ ID NO: 4)
(§4) Final concentration=30 nM
(§5) Final concentration for IC50 determination=10 μM (FLT3-D835Y or FLT3-ITD) or 100 μM (c-KIT)
(§6) AlphaScreen® Phosphotyrosine (PY20) Assay Kit
(§7) Final concentration=10 μg/mL
(§8) Dilute compounds in DMSO to 20× final concentration.
(§9) Add 1 μl of compound to each well of 384 well reaction plate (Perkin Elmer #6005359).
(§10) Mix enzyme and Poly (Glu4-Tyr) Peptide substrate at 1.33× final concentration in assay buffer.
(§11) Mix ATP at 5× final concentration in assay buffer.
(§12) Add 15 μL enzyme/substrate mixture to the reaction plate.
(§13) Add 4 μL of ATP to the reaction plate.
(§14) Mix Streptavidin Donor beads at 6× final concentration in Stop/Detection buffer.
(§15) Add 5 μL Streptavidin Donor beads to the reaction plate. Centrifuge 1 minute, shake to mix, and incubate at room temperature for 20 minutes.
(§16) Mix Anti-Phosphotyrosine (PY20) Acceptor beads at 6× final concentration in Stop/Detection buffer.
(§17) Add 5 μL Anti-Phosphotyrosine (PY20) beads to the reaction plate.
(§18) Centrifuge 1 minute, shake to mix, and incubate at room temperature for 60 minutes.
(§19) Read plate on Wallac EnVision™ 2103 Multilabel Reader.

[2] = molecular target: T2, FLT3-D835Y (Homo sapiens, UniProt P36888, D835Y); test: AlphaScreen kinase assay with recombinant enzyme, FLT3-D835Y; format: biochemical; conditions: 8pt, GMean
T2 construct: purchased Invitrogen PV3967
T2 sequence (P36888 27-993 D835Y): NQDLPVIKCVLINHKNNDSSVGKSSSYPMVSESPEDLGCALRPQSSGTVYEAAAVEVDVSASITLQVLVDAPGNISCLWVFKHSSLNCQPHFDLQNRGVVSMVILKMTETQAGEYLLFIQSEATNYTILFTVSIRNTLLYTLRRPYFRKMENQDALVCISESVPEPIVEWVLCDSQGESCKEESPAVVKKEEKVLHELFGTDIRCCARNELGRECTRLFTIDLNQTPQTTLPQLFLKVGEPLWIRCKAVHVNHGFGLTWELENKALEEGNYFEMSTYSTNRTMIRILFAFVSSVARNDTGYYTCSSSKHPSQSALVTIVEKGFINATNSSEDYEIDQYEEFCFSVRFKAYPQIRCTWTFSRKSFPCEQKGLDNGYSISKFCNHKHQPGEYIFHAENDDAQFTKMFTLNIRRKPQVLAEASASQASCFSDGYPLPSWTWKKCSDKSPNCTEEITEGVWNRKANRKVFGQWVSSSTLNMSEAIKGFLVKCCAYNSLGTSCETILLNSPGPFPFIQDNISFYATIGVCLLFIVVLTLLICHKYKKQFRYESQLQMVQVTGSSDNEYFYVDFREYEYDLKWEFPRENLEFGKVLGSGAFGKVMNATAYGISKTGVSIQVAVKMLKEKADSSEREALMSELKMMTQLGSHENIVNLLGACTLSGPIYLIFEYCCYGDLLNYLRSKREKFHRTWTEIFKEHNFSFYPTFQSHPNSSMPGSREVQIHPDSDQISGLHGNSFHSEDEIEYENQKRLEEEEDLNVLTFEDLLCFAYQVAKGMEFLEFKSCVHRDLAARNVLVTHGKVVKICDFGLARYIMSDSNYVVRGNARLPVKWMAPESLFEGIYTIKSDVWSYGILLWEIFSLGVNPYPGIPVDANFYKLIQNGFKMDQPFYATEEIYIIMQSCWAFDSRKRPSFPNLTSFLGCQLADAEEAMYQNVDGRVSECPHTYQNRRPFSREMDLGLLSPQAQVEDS
Description: as §1, §2, §3, §4, §5, §6, §7, §8, §9, §10, §11, §12, §13, §14, §15, §16, §17, §18, §19

[3] = molecular target: T3, c-KIT (Homo sapiens, UniProt P10721); test: AlphaScreen kinase assay with recombinant enzyme, c-KIT; format: biochemical; conditions: 100ATP, 8pt, GMean
T3 construct: purchased Millipore 14-559K
T3 sequence (P10721 26-976): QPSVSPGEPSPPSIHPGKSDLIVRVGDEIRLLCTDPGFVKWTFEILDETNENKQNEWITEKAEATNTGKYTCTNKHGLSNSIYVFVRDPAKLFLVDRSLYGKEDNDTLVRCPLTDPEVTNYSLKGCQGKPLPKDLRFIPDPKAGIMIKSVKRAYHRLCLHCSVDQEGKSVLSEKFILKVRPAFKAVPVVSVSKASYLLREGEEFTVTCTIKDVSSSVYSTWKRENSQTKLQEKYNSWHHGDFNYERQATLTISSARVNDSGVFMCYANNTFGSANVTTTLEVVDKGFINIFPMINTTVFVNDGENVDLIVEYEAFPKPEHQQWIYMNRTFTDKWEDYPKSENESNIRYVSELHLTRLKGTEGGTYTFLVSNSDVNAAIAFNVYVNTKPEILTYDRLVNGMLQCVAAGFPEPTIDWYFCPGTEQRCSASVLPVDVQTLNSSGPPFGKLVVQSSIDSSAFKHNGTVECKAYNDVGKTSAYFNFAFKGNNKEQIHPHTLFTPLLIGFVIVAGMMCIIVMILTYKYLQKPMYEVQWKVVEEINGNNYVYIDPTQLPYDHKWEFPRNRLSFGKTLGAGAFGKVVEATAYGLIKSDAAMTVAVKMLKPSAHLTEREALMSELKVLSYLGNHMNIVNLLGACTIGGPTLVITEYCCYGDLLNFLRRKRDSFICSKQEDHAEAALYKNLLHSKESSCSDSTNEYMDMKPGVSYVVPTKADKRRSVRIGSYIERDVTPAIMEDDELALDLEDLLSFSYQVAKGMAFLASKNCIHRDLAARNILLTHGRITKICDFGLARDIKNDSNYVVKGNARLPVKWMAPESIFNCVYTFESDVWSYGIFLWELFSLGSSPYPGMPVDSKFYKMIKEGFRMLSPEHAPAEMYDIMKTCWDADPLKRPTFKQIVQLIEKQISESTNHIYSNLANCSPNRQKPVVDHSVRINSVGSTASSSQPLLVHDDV
Description: as §1, §2, §3, §4, §5, §6, §7, §8, §9, §10, §11, §12, §13, §14, §15, §16, §17, §18, §19

[4] = system: MOLM-14 D835Y cells, FLT3 ITD and FLT3 D835Y; test: Cell proliferation assay (CellTiter-Glo), MOLM-14 D835Y; format: cell-based; conditions: Homo sapiens, 72 h, 3d-Growth, GMean
From the text: The FLT3 inhibitors may be assessed using the MOLM-14, Acute Myeloid Leukemia cell line that endogenously expresses FLT3 ITD or derivatives of the human FLT3 AML cell line which acquired the D835Y (activation loop) of F691L (gatekeeper) mutation after selection in escalating doses of the FLT3 Inhibitor AC220. FLT3 inhibitors may also be assessed using cells that are engineered to express mutant FLT3. For engineered cells, murine Ba/F3 cells were transfected with full-length FLT3 ITD/D835Y mutations. The parental BA/F3 cells are dependent upon Interleukin-3 (IL-3) for survival, and introduction of the FLT3 constructs rendered these cells dependent upon FLT3 kinase activity when cultured in the absences of IL-3. Engineered BA/F3 cell growth assays can be performed in either the […] of IL-3, to assess the compound inhibition of FLT3 or to detect the presence of off-target activity, respectively. Inhibitors of FLT3 kinase activity reduce or eliminate the FLT3 oncogenic signaling, resulting in reduced cell proliferation. This inhibition is measured as a function of compound concentration to asses IC50 values.
Cell lines used in proliferation assays are as follows in Table 3:
Cells were seeded at 1×10^4 cells per well of a 96 well cell culture plate in 50 μl of cell culture medium. Compounds were dissolved in DMSO, typically at a concentration of 0.5 mM and were serially diluted 1:3 for a total of eight points and added to the cells to final concentrations of […], 0.0041, 0.0014 and 0.00046 μM in 100 μl cell culture medium (final concentration 0.2% DMSO). […] The cells were incubated at 37° C., 5% CO2 for three days. CellTiter-Glo Buffer (Promega Cell Viability Assay catalog #G7573) and substrate were equilibrated to room temperature, and enzyme/substrate Recombinant Firefly Luciferase/Beetle Luciferin was reconstituted. The cell plates were equilibrated to room temperature for 30 minutes, then lysed by addition of an equivalent volume of the Celltiter-Glo Reagent. The plate was mixed for 10 minutes on a plate shaker to lyse the cells. The plates were read on a Tecan M1000 using Luminescence protocol modified to read 0.1 s per well. The luminescence reading assesses the ATP content, which correlates directly with cell number such that the reading as a function of compound concentration was used to determine the IC50 value.

Row | Structure (SMILES) | IC50 [1] [µM] | IC50 [2] [µM] | IC50 [3] [µM] | IC50 [4] [µM]
1 | NC1CCC(NC(=O)c2n[nH]c3ccc(-c4cnc5[nH]c(-c6ccccc6)cc5c4)cc23)CC1 (centres unmarked) [Compound P-0019, N-(4-aminocyclohexyl)-5-(2-phenyl-1H-pyrrolo[2,3-b]pyridin-5-yl)-1H-indazole-3-carboxamide] | 0.0001 to 10 | 0.0001 to 10 | 0.0001 to 10 | –
2 | O=C(O)C1CCN(C(=O)c2cccc(-c3cnc4[nH]c(-c5ccccc5)cc4c3)n2)CC1 [Compound P-0024, 1-[6-(2-phenyl-1H-pyrrolo[2,3-b]pyridin-5-yl)pyridine-2-carbonyl]piperidine-4-carboxylic acid] | 0.0001 to 10 | 0.0001 to 10 | 10 to 50 | –
3 | CN[C@H]1CCN(C(=O)c2cccc(-c3cnc4[nH]c(-c5ccccc5)cc4c3)n2)C1 [Compound P-0051, [(3S)-3-(methylamino)pyrrolidin-1-yl]-[6-(2-phenyl-1H-pyrrolo[2,3-b]pyridin-5-yl)-2-pyridyl]methanone] | 0.0001 to 10 | 0.0001 to 10 | 0.0001 to 10 | –
4 | Cn1cc(NC(=O)c2cccc(-c3cnc4[nH]c(-c5ccccc5)cc4c3)n2)cn1 [Compound P-0065, N-(1-methylpyrazol-4-yl)-6-(2-phenyl-1H-pyrrolo[2,3-b]pyridin-5-yl)pyridine-2-carboxamide] | – | 0.0001 to 10 | 10 to 50 | –
5 | Cn1ccc(NC(=O)c2cccc(-c3cnc4[nH]c(-c5ccccc5)cc4c3)n2)n1 [Compound P-0066, N-(1-methylpyrazol-3-yl)-6-(2-phenyl-1H-pyrrolo[2,3-b]pyridin-5-yl)pyridine-2-carboxamide] | 0.0001 to 10 | 0.0001 to 10 | 50 to 100 | –
6 | O=C(c1ccc(-c2cnc3[nH]c(-c4ccccc4)cc3c2)s1)N1CCC(n2ccnc2)C1 (centres unmarked) [Compound P-0110, (3-imidazol-1-ylpyrrolidin-1-yl)-[5-(2-phenyl-1H-pyrrolo[2,3-b]pyridin-5-yl)-2-thienyl]methanone] | – | – | 10 to 50 | –
7 | COC(=O)C1(NC(=O)c2cccc(-c3cnc4[nH]c(-c5ccccc5)cc4c3)n2)CC1 [Compound P-0129, methyl 1-[[6-(2-phenyl-1H-pyrrolo[2,3-b]pyridin-5-yl)pyridine-2-carbonyl]amino]cyclopropanecarboxylate] | – | 0.0001 to 10 | – | 0.0001 to 10
8 | CC(C)(C#N)NC(=O)c1cccc(-c2cnc3[nH]c(-c4ccnc(F)c4)cc3c2)n1 [Compound P-0209, N-(1-cyano-1-methyl-ethyl)-6-[2-(2-fluoro-4-pyridyl)-1H-pyrrolo[2,3-b]pyridin-5-yl]pyridine-2-carboxamide] | 0.0001 to 10 | 0.0001 to 10 | 50 to 100 | –
9 | Cc1cc(-c2cc3cc(-c4cccc(C(=O)NC(C)(C)C#N)n4)cnc3[nH]2)ccn1 [Compound P-0210, N-(1-cyano-1-methyl-ethyl)-6-[2-(2-methyl-4-pyridyl)-1H-pyrrolo[2,3-b]pyridin-5-yl]pyridine-2-carboxamide] | 0.0001 to 10 | 0.0001 to 10 | 50 to 100 | –
